Data taken from patent publication US8334262B2, “Cognitive function” (priority 2008, dated 2012).

Assays:
Sprague-Dawly male rats = test: Odour maze learning (olfactory discrimination, 4-arm radial maze); format: in vivo, rat; conditions: i.p. every day, 2 hr before training; day 3 & 6 p<0.05, n=4
Protocol: Subjects and apparatus: Age-matched young adult Sprague-Dawly male rats were used. Prior to training they were maintained on a 23.5 hr water-deprivation schedule, with food available ad libitum. Olfactory discrimination training protocol was performed daily on each trained and pseudo-trained rat in a 4-arm radial maze, as previously described (Cohen-Matsliah et al. (2007) Journal of Neuroscience 27, 12584-12589), with commercial odours that are regularly used in the cosmetics and food industry.
(§1) C-16 was injected i.p. every day, 2 hr before odour maze training. There was 48 hr break between day 3 and 4 without training or injection.
Training: Olfactory training consisted of 20 trials per day for each rat as previously described (Cohen-Matsliah et al. (2007)). In short, in each trial the rat had to choose between two odours (positive- and negative-cue) presented simultaneously. Rats designated to the trained group were rewarded upon choosing the positive cue. The criterion for learning was at least 80% positive-cue choices in the last 10 trials of a training day, as was previously used (Cohen-Matsliah et al. (2007)). Training for a new pair began only after training for the […] pair was completed for all rats.

rats [1] = test: Observation of side effects in rats injected with C-16; format: in vivo, rat
Protocol: Conditioned taste aversion and novel taste learning were enhanced.
as §1

rats [2] = test: Novel taste learning, latent inhibition (LI) paradigm; format: in vivo, rat
Protocol: CTA was performed as described earlier (Rosenblum et al., (1993) Behavioral and Neural Biology 59, 49-56). Saccharin (0.1% w/v, sodium salt) or NaCl (0.3%) were used as the unfamiliar taste in training (i.e. the conditioned stimulus (CS)), and injection of LiCl (0.15 m, 2% body weight, i.p.) as the malaise-inducing agent (unconditioned stimulus (UCS)). At the beginning of the behavioral experiment, the rats were trained for 3 days to obtain their daily water ration once a day for 15 min from two pipettes each containing 10 mL of water. On the conditioning day, they were allowed to drink the saccharin solution instead of water from similar pipettes for 15 min, and 50 min later were injected with LiCl. Under these conditions, 2 days after training the conditioned rats preferred water to saccharin in a multiple choice test situation (three pipettes with 5 mL of saccharin each and three with 5 mL of water each), whereas non-conditioned rats preferred saccharin to water. The behavioural data are presented in terms of aversion index, defined as [mL water/(mL water+mL saccharin)] consumed in the test; 0.5 is a chance level, and the higher the aversion index, the more the rats prefer water to the conditioned taste. […]

rats [3] = test: Contextual fear conditioning (freezing); format: in vivo, rat; conditions: i.p. 2 hr before conditioning; tested 24 hours and 10 days later; p<0.05
Excerpt: The entire behavioural procedure took place in the same conditioning chamber containing floor grids and transparent Plexiglas walls. The context of the chamber served as a conditioned stimulus (CS). Rats were placed in the chamber for an approximately two minute adjustment before they were given a foot-shock (0.8 mA for 0.5 sec), which was delivered to the floor bars and served as the unconditioned stimulus (US). The CS-US pairings were given three times. The inter-trial interval was 90-120 seconds throughout. The video images are transferred to a computer (fear-conditioning experiments, control experiment, Dell OptiPlex GXpro) equipped with an analysis program (Image (http://rsb.info.nih.gov/nih-image)) and a macroprogram (P. Schmid, Behavioral Neurobiology Laboratory, Swiss Federal Institute of Technology Zurich). The percentage of changed pixels between two adjacent 1 s images from one of the test boxes was used as a measure of activity. Freezing is commonly identified as cessation of any movement except for respiratory movements. If the percentage of changed pixels between two adjacent 1 s images was <0.05%, this corresponded well to such immobility and the behavior of the rat was scored as “freezing” for the respective second.
C-16 was injected i.p. 2 hr before contextual fear condition. […]

PKR [4] = target: T1, PKR (Rattus norvegicus, UniProt Q63184); test: PKR phosphorylation in hippocampal slices from mature rats (Western blot); format: cell-based
T1 construct: from tissue; host or cells: rat hippocampal slices (400 µm)
T1 sequence (Q63184 1-513): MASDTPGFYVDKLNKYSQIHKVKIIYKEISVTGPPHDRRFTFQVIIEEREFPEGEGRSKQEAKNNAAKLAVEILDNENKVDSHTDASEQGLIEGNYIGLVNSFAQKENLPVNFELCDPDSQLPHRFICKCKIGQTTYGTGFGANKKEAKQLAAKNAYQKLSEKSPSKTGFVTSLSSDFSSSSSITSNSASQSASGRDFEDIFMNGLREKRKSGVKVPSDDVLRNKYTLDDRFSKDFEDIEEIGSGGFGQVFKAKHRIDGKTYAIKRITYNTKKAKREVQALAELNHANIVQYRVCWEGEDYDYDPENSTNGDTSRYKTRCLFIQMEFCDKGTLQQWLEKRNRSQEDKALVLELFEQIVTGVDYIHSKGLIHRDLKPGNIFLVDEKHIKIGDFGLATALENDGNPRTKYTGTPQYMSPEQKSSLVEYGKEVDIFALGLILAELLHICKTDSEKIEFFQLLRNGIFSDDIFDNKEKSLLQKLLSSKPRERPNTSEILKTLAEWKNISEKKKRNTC
Protocol: (§2) In order to test biochemically the ability of C-16 to reduce eIF-2α phosphorylation in the mature brain, C-16 was applied to hippocampal slices from mature rats substantially as described by Kaphzan et al. (2007) Journal of Neurochemistry 103, 388-399 but with modifications as set out below.
(§3) After decapitation the brain was immediately immersed in cold (4° C.) carboxygenated (95% O2, 5% CO2) Artificial Cerebro-Spinal Fluid (ACSF [in mM]: 124 NaCl, 5 KCl, 1.2 MgSO4, 1.2 NaH2PO4, 26 NaHCO3, 10 D-glucose, 2.4 CaCl), and after about 120s both hippocampi were dissected out in a plate filled with cold (4° C.) ACSF on ice. The hippocampi were put on a cooled stand of a Mcllwain tissue chopper TC752 (Campden Instruments Ltd, UK), cut into 400-μm slices, and then put back into a chamber filled with carboxygenated cold (4° C.) ACSF.
(§4) The slices were transferred to a holding chamber for about 20-30 min, to reach room temperature, and were then transferred to a six-chamber pharmacological instrument, designed to our specifications by Scientific Systems Design Company (Ontario, Canada). All of the slices tested in any one experiment (i.e., in all six chambers) were produced by the same procedure from the same rat. The hippocampal slices were heated to 32° C. and were kept in the chamber for 5 h before any pharmacological intervention. Each chamber contained four slices. The slices were perfused with heated and carboxygenated ACSF (with or without 50 μM C-16 (experimental and control groups respectively)) via a Model MP3 peristaltic pump (Gilson, France), at a rate of ˜2 mL min for 10 mins. The chamber space was carboxygenated and humidified. The chamber was an interface type, and the slices were placed upon a lens paper.
(§5) The slices were analysed occasionally for their viability using extracellular recordings of fEPSP in the CA1 region. […]
(§6) The time window of C-16 effect was analysed by Western blot using specific antibodies for phosphorylated and dephosphorylated forms of PKR and eIF-2α. […]

eIF-2α = eIF-2α phosphorylation in hippocampal slices from mature rats (Western blot); format: cell-based, rat
Protocol: as §2, §3, §4, §5, §6

PKR [5] = target: PKR (Homo sapiens, UniProt P19525); conditions: by inhibiting the ATP-binding site of PKR; cited from earlier work
Chain of PKR (Homo sapiens, UniProt P19525) (P19525 whole entry): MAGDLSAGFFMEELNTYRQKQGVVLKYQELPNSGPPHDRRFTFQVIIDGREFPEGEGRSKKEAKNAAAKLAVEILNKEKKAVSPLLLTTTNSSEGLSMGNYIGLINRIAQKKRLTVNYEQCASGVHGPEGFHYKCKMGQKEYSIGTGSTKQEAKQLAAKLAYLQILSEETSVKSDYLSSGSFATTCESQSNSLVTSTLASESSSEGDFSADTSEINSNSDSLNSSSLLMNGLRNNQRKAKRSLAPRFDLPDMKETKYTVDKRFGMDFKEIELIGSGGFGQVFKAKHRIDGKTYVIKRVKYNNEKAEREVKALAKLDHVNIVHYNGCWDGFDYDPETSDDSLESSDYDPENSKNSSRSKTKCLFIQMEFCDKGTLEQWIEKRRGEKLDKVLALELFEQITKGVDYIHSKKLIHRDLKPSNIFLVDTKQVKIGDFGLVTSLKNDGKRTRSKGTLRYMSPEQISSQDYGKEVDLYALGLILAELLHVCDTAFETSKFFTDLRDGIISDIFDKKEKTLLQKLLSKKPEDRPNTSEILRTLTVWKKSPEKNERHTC

rats [6] = test: Weak conditioned taste aversion (CTA); format: in vivo, rat
[7] = 50 μM C-16 perfused on hippocampal slices
[8] = time window, Western blot, 1 hr after treatment

Structure (SMILES): O=C1Nc2ccc3ncsc3c2/C1=C/c1c[nH]cn1 [Compound C-16]
- odour maze learning (FIG. 11) (Sprague-Dawly male rats): enhances odour maze learning
- side effects on repeated i.p. injection (rats [1]; i.p. once a day over a period of more than 7 days, odour maze experiment): without any clear disadvantageous side effect
- other effects in taste learning experiments (rats [1]; local and i.p. injection): no other effect that could be measured
- novel taste memory of 0.1% Saccharin (FIG. 8) (rats [2]; 30 min after local microinjection into the gustatory cortex, 50 μM, p<0.05): enhances novel taste memory
- novel taste memory of 0.1% Saccharin (FIG. 7) (rats [2]; 2 hr after i.p. application, p<0.01, n=6): enhances novel taste memory
- contextual fear condition, average freezing between 4th and 7th minutes (FIG. 12) (rats [3]): enhances contextual fear condition
- PKR phosphorylation in the mature hippocampus (FIG. 2) (PKR [4]; [7]): inhibited
- time of return of PKR phosphorylation to base line following treatment (PKR [4]; time window, Western blot): 3 to 4 h
- C-16 effect on PKR phosphorylation after 1 hr (PKR [4]; [8]): strong effect
- eIF-2α phosphorylation in the mature hippocampus (FIG. 3) (eIF-2α; [7]): inhibited
- time of return of eIF-2α phosphorylation to base line following treatment (eIF-2α; time window, Western blot): 3 to 4 h
- C-16 effect on eIF-2α phosphorylation after 1 hr (eIF-2α; [8]): strong effect
- PKR kinase activity (PKR [5]): able to inhibit PKR's kinase activity
- weak CTA (0.05M) to 0.3% NaCl (FIG. 10) (rats [6]; 30 min after local injection into the gustatory cortex, 50 μM, p<0.05): enhances weak CTA
- weak Conditioned Taste Aversion (0.05M) to 0.3% NaCl (FIG. 9) (rats [6]; 2 hr after i.p. application, n=8): enhances weak Conditioned Taste Aversion
